Reference: ChEMBL document CHEMBL2074204, “The endothelin antagonist bosentan inhibits the canalicular bile salt export pump: a potential mechanism for hepatic adverse reactions” (Clin Pharmacol Ther, 2001)

Target: T1, Bile salt export pump (Rattus norvegicus, UniProt O70127)
T1 sequence (O70127 whole entry): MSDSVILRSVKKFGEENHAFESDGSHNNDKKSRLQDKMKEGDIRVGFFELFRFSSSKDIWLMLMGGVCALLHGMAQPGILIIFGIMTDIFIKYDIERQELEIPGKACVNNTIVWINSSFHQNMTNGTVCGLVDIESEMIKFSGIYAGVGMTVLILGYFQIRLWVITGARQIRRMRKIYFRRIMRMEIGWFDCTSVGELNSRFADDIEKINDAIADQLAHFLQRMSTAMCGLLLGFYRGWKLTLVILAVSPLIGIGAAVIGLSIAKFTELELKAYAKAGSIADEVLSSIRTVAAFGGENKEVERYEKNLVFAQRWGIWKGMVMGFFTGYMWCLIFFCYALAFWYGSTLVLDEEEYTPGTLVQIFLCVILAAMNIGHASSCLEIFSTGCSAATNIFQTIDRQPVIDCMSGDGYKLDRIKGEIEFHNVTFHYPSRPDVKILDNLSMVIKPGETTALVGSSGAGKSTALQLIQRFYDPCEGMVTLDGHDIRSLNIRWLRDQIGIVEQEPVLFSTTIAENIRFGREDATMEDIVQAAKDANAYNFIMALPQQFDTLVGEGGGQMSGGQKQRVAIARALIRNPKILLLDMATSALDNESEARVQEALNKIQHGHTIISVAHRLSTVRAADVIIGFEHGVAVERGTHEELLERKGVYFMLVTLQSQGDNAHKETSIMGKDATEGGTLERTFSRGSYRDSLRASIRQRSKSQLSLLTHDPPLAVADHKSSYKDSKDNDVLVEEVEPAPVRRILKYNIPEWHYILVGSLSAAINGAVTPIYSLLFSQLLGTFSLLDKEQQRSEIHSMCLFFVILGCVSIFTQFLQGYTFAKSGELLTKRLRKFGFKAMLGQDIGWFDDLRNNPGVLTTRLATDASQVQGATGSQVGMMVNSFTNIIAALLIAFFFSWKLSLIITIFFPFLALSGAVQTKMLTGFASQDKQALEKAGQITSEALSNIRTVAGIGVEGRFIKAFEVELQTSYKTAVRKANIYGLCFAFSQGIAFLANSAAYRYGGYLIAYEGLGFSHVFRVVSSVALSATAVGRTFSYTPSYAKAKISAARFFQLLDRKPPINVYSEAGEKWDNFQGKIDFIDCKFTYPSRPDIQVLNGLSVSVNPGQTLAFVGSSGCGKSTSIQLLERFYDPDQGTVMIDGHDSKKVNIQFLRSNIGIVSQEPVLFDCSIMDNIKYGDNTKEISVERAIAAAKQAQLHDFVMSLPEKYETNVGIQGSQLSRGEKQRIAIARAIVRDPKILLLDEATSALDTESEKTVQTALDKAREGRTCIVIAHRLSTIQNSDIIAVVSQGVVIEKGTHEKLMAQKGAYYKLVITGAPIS
Assay: TP_TRANSPORTER: inhibition of Taurocholate uptake in membrane vesicle from Bsep-expressing Sf9-cell
Type: functional, cell membranes

SMILES | Ki [µM]
CC(C)(C)c1ccc(S(=O)(=O)Nc2nc(-c3ncccn3)nc(OCCO)c2Cc2ccccc2O)cc1 [BOSENTAN M2] | 8.5
COc1ccccc1Oc1c(NS(=O)(=O)c2ccc(C(C)(C)C)cc2)nc(-c2ncccn2)nc1OCCO [BOSENTAN] | 12
